From PubChem BioAssay AID1259407 (Chemical Carcinogenesis Research Information System (CCRIS), 2018)
Active and inactive are the calls of the source. How the calls were made is not given here.

Test system: CCRIS mutagenicity, Ames/micronucleus/aberration tests
Assay: CCRIS mutagenicity studies

Measured: mutagenic call

C[C@@H]1Cc2c(Cl)cc(C(=O)NC(Cc3ccccc3)C(=O)O)c(O)c2C(=O)O1 (some centres not stated)
active: Test System: AMES SALMONELLA TYPHIMURIUM, Strain/Indicator: TA1535, Metabolic Activation: MOUSE KIDNEY S-9, NADP OR ARACHIDONIC ACID (10%), Method: MICROMETHOD active; positive | Test System: AMES SALMONELLA TYPHIMURIUM, Strain/Indicator: TA1538, Metabolic Activation: MOUSE KIDNEY S-9, NADP OR ARACHIDONIC ACID (10%), Method: MICROMETHOD active; positive | Test System: Chinese hamster lung cells, Strain/Indicator: V79 (HPRT)/6-Thioguanine, Metabolic Activation: None, Method: Standard plate active; positive (weak) | Test System: Chinese hamster lung cells, Strain/Indicator: V79 (HPRT)/6-Thioguanine, Metabolic Activation: Rat, Kidney, S-9 (phenobarbital/beta-naphthoflavone), Method: Standard plate active; positive (weak) | Test System: Mouse lymphoma cells, Strain/Indicator: L5178Y (tk+/tk-), Metabolic Activation: None, Method: Microtiter active; positive (weak) | Test System: Mouse lymphoma cells, Strain/Indicator: L5178Y (tk+/tk-), Metabolic Activation: Rat, Kidney, S-9 (phenobarbital/beta-naphthoflavone), Method: Microtiter active; positive (weak) | Test System: UDS HUMAN UROTHELIAL CELLS, Strain/Indicator: THY INCORP, Metabolic Activation: NONE, Method: AUTORADIOGRAPHY active; positive | Test System: UDS HUMAN UROTHELIAL CELLS, Strain/Indicator: THYMIDINE INCORPORATION, Metabolic Activation: NONE, Method: AUTORADIOGRAPHY active; positive | Test System: UDS PORCINE PRIMARY BLADDER EPITHELIAL CELL, Strain/Indicator: THY INCORP, Metabolic Activation: NONE, Method: AUTORADIOGRAPHY active; positive
inactive: Test System: AMES SALMONELLA TYPHIMURIUM, Strain/Indicator: TA102, Metabolic Activation: RAT, LIVER, S-9, AROCLOR 1254, Method: STANDARD PLATE inactive; negative | Test System: AMES SALMONELLA TYPHIMURIUM, Strain/Indicator: TA104, Metabolic Activation: NONE, Method: PREINCUBATION inactive; negative | Test System: AMES SALMONELLA TYPHIMURIUM, Strain/Indicator: TA104, Metabolic Activation: RAT LIVER S-9, Method: PREINCUBATION inactive; negative | Test System: AMES SALMONELLA TYPHIMURIUM, Strain/Indicator: TA1535, Metabolic Activation: HAMSTER, LIVER, S-9, AROCLOR 1254 (10 OR 30%), Method: PREINCUBATION inactive; negative | Test System: AMES SALMONELLA TYPHIMURIUM, Strain/Indicator: TA1535, Metabolic Activation: HAMSTER, LIVER, S-9, AROCLOR 1254, Method: PREINCUBATION inactive; negative | Test System: AMES SALMONELLA TYPHIMURIUM, Strain/Indicator: TA1535, Metabolic Activation: MOUSE LIVER S-9 (10%), Method: MICROMETHOD inactive; negative | Test System: AMES SALMONELLA TYPHIMURIUM, Strain/Indicator: TA1535, Metabolic Activation: NONE, Method: STANDARD PLATE inactive; negative | Test System: AMES SALMONELLA TYPHIMURIUM, Strain/Indicator: TA1535, Metabolic Activation: RAT LIVER S-9, AROCLOR 1254 (10%), Method: MICROMETHOD inactive; negative | Test System: AMES SALMONELLA TYPHIMURIUM, Strain/Indicator: TA1535, Metabolic Activation: RAT LIVER S-9, Method: PREINCUBATION inactive; negative | Test System: AMES SALMONELLA TYPHIMURIUM, Strain/Indicator: TA1535, Metabolic Activation: RAT, LIVER, S-9, AROCLOR 1254 (10 OR 30%), Method: PREINCUBATION inactive; negative | Test System: AMES SALMONELLA TYPHIMURIUM, Strain/Indicator: TA1535, Metabolic Activation: RAT, LIVER, S-9, AROCLOR 1254, Method: PREINCUBATION inactive; negative | Test System: AMES SALMONELLA TYPHIMURIUM, Strain/Indicator: TA1535, Metabolic Activation: RAT, LIVER, S-9, AROCLOR 1254, Method: STANDARD PLATE inactive; negative | Test System: AMES SALMONELLA TYPHIMURIUM, Strain/Indicator: TA1537, Metabolic Activation: NONE, Method: PREINCUBATION inactive; negative | Test System: AMES SALMONELLA TYPHIMURIUM, Strain/Indicator: TA1537, Metabolic Activation: NONE, Method: STANDARD PLATE inactive; negative | Test System: AMES SALMONELLA TYPHIMURIUM, Strain/Indicator: TA1537, Metabolic Activation: RAT LIVER S-9, Method: PREINCUBATION inactive; negative | Test System: AMES SALMONELLA TYPHIMURIUM, Strain/Indicator: TA1537, Metabolic Activation: RAT, LIVER, S-9, AROCLOR 1254, Method: STANDARD PLATE inactive; negative | Test System: AMES SALMONELLA TYPHIMURIUM, Strain/Indicator: TA1538, Metabolic Activation: MOUSE LIVER S-9 (10%), Method: MICROMETHOD inactive; negative | Test System: AMES SALMONELLA TYPHIMURIUM, Strain/Indicator: TA1538, Metabolic Activation: NONE, Method: PREINCUBATION inactive; negative | Test System: AMES SALMONELLA TYPHIMURIUM, Strain/Indicator: TA1538, Metabolic Activation: NONE, Method: STANDARD PLATE inactive; negative | Test System: AMES SALMONELLA TYPHIMURIUM, Strain/Indicator: TA1538, Metabolic Activation: RAT LIVER S-9, AROCLOR 1254 (10%), Method: MICROMETHOD inactive; negative | Test System: AMES SALMONELLA TYPHIMURIUM, Strain/Indicator: TA1538, Metabolic Activation: RAT LIVER S-9, Method: PREINCUBATION inactive; negative | Test System: AMES SALMONELLA TYPHIMURIUM, Strain/Indicator: TA1538, Metabolic Activation: RAT, LIVER, S-9, AROCLOR 1254, Method: STANDARD PLATE inactive; negative | Test System: CHINESE HAMSTER V-79, Strain/Indicator: V-79(HPRT)/6-THIOGUANINE, Metabolic Activation: NONE inactive; negative | Test System: CHINESE HAMSTER V-79, Strain/Indicator: V-79(HPRT)/6-THIOGUANINE, Metabolic Activation: RAT LIVER S-9 inactive; negative | Test System: MOUSE LYMPHOMA, Strain/Indicator: L5178Y (TK+/TK-), Metabolic Activation: NONE, Method: SUSPENSION/PLATE inactive; negative | Test System: MOUSE LYMPHOMA, Strain/Indicator: L5178Y (TK+/TK-), Metabolic Activation: RAT, LIVER, S-9, AROCLOR 1254, Method: SUSPENSION/PLATE inactive; negative | Test System: UDS HUMAN INFANT UROTHELIAL CELLS, Strain/Indicator: THY INCORP, Metabolic Activation: NONE, Method: AUTORADIOGRAPHY inactive; negative | Test System: UDS RODENT PRIMARY CELLS, Metabolic Activation: NONE, Method: AUTORADIOGRAPHY (DNA REPAIR) inactive; negative
